Entries after “also recorded” stand apart in the source; their conditions may differ.

Here are results for one compound from US20160228434A1, “TREATMENT OF DISEASES CAUSED BY ABNORMAL LYMPHOCYTE FUNCTION WITH AN HDAC6 INHIBITOR” (priority 2013, published 2016).

Holding throughout (type): in vivo
The subject of one assay is splenic B cells. The assay is described as follows: Splenic B cell developmental stages by flow cytometry in treated NZB/W mice. The settings on record: either low (5 mg/kg) or high (20 mg/kg) dose. As to the method:
(§1) NZB/W mice were injected intraperitoneally 5 days/week with the vehicle control (DMSO), ACY-738 treatment at 5 mg/kg (low-dose), or ACY-738 treatment at 20 mg/kg (high-dose) beginning at 22-weeks-of-age until euthanization at 38 weeks-of-age. ACY-738 was received from Acetylon Pharmaceuticals for use in all studies. Proteinuria and weight were measured every 2 weeks and blood was collected every four weeks for sera analysis. Proteinuria was measured by a standard semi-quantitative test using Siemens Uristix dipsticks (Siemens Healthcare, Deerfield, Ill., USA). Results were quantified according to the manufacturer's instructions and scored as follows: dipstick reading of 0 mg/dL=0, trace=1, 30-100 mg/dL=2, 100-300 mg/dL=3, 300-2000 mg/dL=4, and 2000+ mg/dL=5.
Following euthanization, spleens were removed and single-cell suspensions of splenocytes were incubated with PerCP710 conjugated IgM, FITC conjugated AA4.1, PE conjugated CD23, and APC conjugated CD21 anti-mouse mAbs (eBioscience, San Diego, Calif., USA). IgM^+ cells were analyzed for the expression of AA4.1, CD23 and CD21 and divided into the following developmental stages using flow cytometry: T1 (IgM^+ CD23^− AA4.1^+ CD21^−), T2 (IgM^hi CD23^+ AA4.1^+ CD21^+), T3 (IgM^lo CD23^+ AA4.1^+ CD21^+), F0 (IgM^+ CD23^+ AA4.1^− CD21^−), MZ (IgM^+ CD23^− AA4.1^− CD21^+) or B1 (IgM^+ CD23^− AA4.1^− CD21^−). […]

Another assay deals with NZB/W mice. Nature of the assay: SLE-associated renal pathology (PAS-stained kidney sections, glomerular score) in treated NZB/W mice. As to the method: as §1
At the time of euthanization, the kidneys were removed and cut in half. One half of the kidney from each mouse was fixed in formalin, embedded in paraffin, sectioned, and stained with Periodic acid-Schiff (PAS). Kidney sections were scored (0-4) for glomerular proliferation, inflammation, crescent formation, necrosis, and by a pathologist, Dr. David Caudell, in a blinded manner.
In order to assess renal disease, kidney sections were embedded in paraffin and stained by PAS. […] NZB/W mice treated with DMSO alone had thickened, irregular glomerular basement membranes, increased cellularity, fibrosis and crescent formation (see FIG. 11 A). […] Sections were assessed for glomerular proliferation, inflammation, number of nuclei per glomerulus, crescent formation, and fibrosis by a blinded pathologist, and a glomerular score (0-4) was assigned. NZB/W mice that were treated with the vehicle control alone received an average score of 4 compared to an average score of 2 from mice that received the high-dose of ACY-738 (FIG. 11 C).

Assay [1] has as its system bone marrow pro-B cell (B220+CD43+) and pre-B cell (B220+CD43-) populations. The assay is described as follows: Bone marrow pro- and pre-B cell differentiation by flow cytometry in treated NZB/W mice.
Excerpt: Bone marrow cells were flushed in PBS with 1% BSA from the femurs of NZB/W mice following euthanization. Red blood cells (RBCs) were lysed using ammonium chloride potassium (ACK) lysing solution. Single-cell suspensions were then washed and stained with Allo-Phycocyanin (APC)-conjugated […] and Flourescein Isothiocyanate (FITC)-conjugated CD43 anti-mouse mAbs to identify pro-B cell (B220^+ CD43^+) and pre-B cell (B220^+ CD43^−) populations. Pro-B cell populations were further stained with Phycoerythirn (PE)-conjugated BP1 and PECy5 or Peridinin-chlorophyll proteins (PerCP)-conjugated CD24 anti-mouse mAbs to identify fractions A (B220^+ CD43^+ CD24^− BP1^−), B (B220^+ CD43^+ CD24^+ BP1^−), C (B220^+ CD43^+ CD24^lo BP1), and C′ (B220^+ CD43^+ CD24^hi BP1^+). Pre-B cells fractions were further stained with PE-conjugated IgD, and PECy5-conjugated IgM anti-mouse mAbs to identify fractions D (B220^+ CD43^− IgM^− IgD^−), E (B220^+ CD43^− IgM^+ IgD^−) and F (B220^+ CD43^− IgM^+ IgD^+). Fractions were measured by flow cytometric analysis. All antibodies were purchased from eBioscience (San Diego, Calif., USA). Flow cytometry was performed at that College of Veterinary Medicine Flow Cytometry Core Facility using a FACScan flow cytometer (Becton Dickinson, Franklin Lakes, N.J., USA). Flow cytometry data was analyzed using FlowJo Software (Tree Star, Ashland, Oreg., USA).
as §1
Following treatment with ACY-738, harvested bone marrow cells were stained with B220 and CD43 and the percentage of pro- and pre-B cells was determined using flow cytometric analysis. FIG. 2A depicts a representative flow cytometry image of pro-B cell (B220^+ CD43^+) and pre-B cell (B220^+ CD43^−) populations.

Assay [2] has as its system Treg cells (CD4+Foxp3+CD25+). The assay is described as follows: Splenic Treg phenotype by flow cytometry in treated NZB/W mice. The settings on record: 38-week-old NZB/W mice, both doses (5 and 20 mg/kg), vs vehicle control. As to the method: as §1
A single-cell suspension was obtained from the thymuses and spleens of treated NZB/W mice at 38 weeks-of-age. Briefly, the thymus was removed from each NZB/W mouse and dissociated across a sterile wire mesh in a petri dish containing ice-cold RPMI 1640 medium (Thermo Scientific). RBCs were lysed using RBC lysis buffer and cells were pelleted and washed with PBS. Splenocytes were stained with APC-conjugated CD3, FITC-conjugated CD4, eFluor450 (eF450)-conjugated CD8a, PerCP-CY5.5-conjugated CD25, and PE-conjugated Foxp3. […] Fluorescence was measured using a FACScan flow cytometer and data was analyzed by FlowJo software. […]

[3] abbreviates: both high (20 mg/kg) and low (5 mg/kg) dose.
The mark [4] stands for this setting: i.p. 5 days/week, 22 to 38 weeks-of-age, 5 or 20 mg/kg.

As for `O=C(NO)c1cnc(NC2(c3ccccc3)CC2)nc1` [ACY-738], the “splenic B cell populations (T1, T2, T3, F0, MZ, B1)” value in the assay with splenic B cells is “did not significantly affect; also recorded: no effect”. Also, the kidney pathology result with NZB/W mice (5 mg/kg, PAS-stained sections) is on record as “did not significantly alter”. Moreover, the SLE renal pathology entry in the assay on NZB/W mice (20 mg/kg, PAS-stained sections, lack of fibrosis and crescent bodies) is reported as “significantly reduced”. Further, the “average glomerular score (0-4)” value with NZB/W mice (high dose (20 mg/kg), vehicle control average score 4) was 2. In addition, in assay [1] (setting [3]), the “percentage of pre-B cells in fraction D” value is listed as “significant increase”, the “percentage of pre-B cells in fraction E” value was “significant increase” and the “pre-B cells in fraction F” value is on record as “decrease”. The “pre-B cell population (B220+CD43-) in bone marrow” value in assay [1] (i.p. 5 days/week, 22 to 38 weeks-of-age, 5 and 20 mg/kg) was “significantly decreased in a dose-dependent manner”. Besides, in assay [1] (setting [4]), the “percentage of pro-B cells in fraction A” value is on record as “significantly increased” and the “percentage of pro-B cells in fraction C” value was “significantly increased”. Further, the “percentage of pro-B cells (B220+CD43+) in bone marrow” value in assay [1] (i.p. 5 days/week, 22 to 38 weeks-of-age, 5 or 20 mg/kg, vs vehicle) was “not significantly altered”. The “percentage of splenic Treg cells (CD4+Foxp3+CD25+)” value in assay [2] is reported as “significantly increased”.
